In patent US20090170938A1 (priority 2005, published 2009):

Test system: Phytophthora infestans
Type: in vivo, Phytophthora infestans on tomato
Details: active compound application rate 5 ppm; protective spray, tomato; evaluation 3 days after inoculation

**Q.** `CON=C(C(=O)OC)c1ccccc1CO/N=C(\C)c1cccc(C(F)(F)F)c1` [Trifloxystrobin, 2-[α-{[(α-methyl-3-trifluoromethyl-benzyl)imino]-oxy}-o-tolyl]-glyoxylic acid methyl ester O-methyloxime] was tested. Which “% efficacy” value did it give?
**A.** The value was 23%.
